Test results: US11851389B2, “Cationic lipids for nucleic acid delivery and preparation thereof” (RAMOT AT TEL-AVIV UNIVERSITY LTD., priority 2016, dated 2023)

Assays:
[1] = test system: HEK 293 cells; experiment: In vitro expression of mKATE-pDNA, flow cytometry; type: cell-based; details: 72 hr; for mKATE expression: HEK 293, 0.6 nM pDNA; for Dose dependence of mKATE expression: HEK 293, different amount pDNA
Method: In vitro expression of pDNA in HEK 293 cells: HEK cells were treated with LNPs composed of either lipid1 or lipid 10 encapsulated with mKATE-pDNA at the concentration of 0.6 nM pDNA. After 72 hr, mKATE expression was analyzed by flow cytometry.
Dose dependent expression of pDNA in HEK 293 cells: HEK cells were treated with LNPs composed of either lipid1 or lipid 10 encapsulated with mKATE-pDNA at different amount pDNA. After 72 hr, mKATE expression was analyzed by flow cytometry.

[2] = LNP size distribution, PDI and ζ potential by dynamic light scattering; type: physicochemical; details: LNP-siRNA formulations; for PDI / Size (d · nm): DLS
Method: LNPs were prepared by using microfluidic micro mixture (Precision NanoSystems, Vancouver, BC, Canada) as described by Cohen et. al. One volume of lipid mixtures (cationic lipid, DSPC, Chol, DMG-PEG and DSPE-PEG Mal at 50:10:38:1.5:0.5 mole ratio, […] total lipid concentration) in ethanol and three volumes of siRNA (1:16 w/w siRNA to lipid) containing acetate buffer solutions were injected through the micro mixer at a combined flow rate of 2 mL/minute (0.5 mL/min for ethanol and 1.5 mL/min for aqueous buffer). For labeled LNPs, 10% of Alexa-647 labeled siRNA were incorporated. For Cy5 labeled particles, 10% Cy5 labeled non-targeted siRNA was used. The resultant mixture was dialyzed against PBS (pH 7.4) for 16 h to remove ethanol.
LNPs size distribution and ζ potential were determined by dynamic light scattering using a Malvern nano ZS ζ-sizer (Malvern instruments, UK). For size measurements, LNPs were diluted 1:20 in PBS. […] For ζ potential measurements, LNPs were diluted 1:200 in DDW. In some cases, as indicated, size and zeta potential measurements were performed in water.

[3] = test system: Human T cells SupT1; experiment: In vitro CD45 gene silencing by LNP-siCD45, flow cytometry; type: cell-based; details: LNP with siCD45, 48 hrs or 72 hrs, 0.4, 0.2, 0.1 μM siRNA
Method: (§1) Supt1 or NAR or OVCAR cells were placed in tissue culture 12-wells plates at a density of 1×10^5 cells with 1 mL of full medium. LNPs containing different siRNAs (siPLK1 or siCD45 or siLUC) were added to the wells and the concentration was mentioned in figures. Cells were isolated at different time intervals mentioned in the figures and analyzed by either flow cytometry (for siCD45 knockdown), or qPCR for analysis of PLK1 silencing. Apoptosis assay using PI/Annexin was analyzed by flow cytometry in case of siPLK1 induced cell death.
FIG. 1 depicts in vitro gene silencing effect lipid 1: Human T cells SupT1 were treated with lipid nanoparticle (LNP) comprising of cationic lipid 1 encapsulated siCD45 for 48 hrs (A) or 72 hrs (B) at different siRNA doses (0.4 μM, 0.2 μM, 0.1 μM).

[4] = test system: Human ovarian carcinoma cells (OVCAR 8); experiment: PLK-1 expression by qPCR after LNP-siPLK1 or siLUC; type: cell-based; details: OVCAR 8, 72 hr
Method: (§2) The mRNA levels of pololike kinase 1 (PLK1 gene) in cells was quantified by real-time PCR, forty eight or Seventy-two hours post-transfection. Total RNA was isolated using the E-Z RNA purification kit (Biological industries, Beit Haemek, Israel), and 1 μg of RNA from each sample was reverse transcribed into cDNA using the High Capacity cDNA Reverse Transcription Kit (Applied Biosystems, Foster City, CA), Quantification of cDNA (5 ng total) was performed on the step one Sequence Detection System (Applied Biosystems, Foster City, CA) using syber green (Applied Biosystems). GAPDH was chosen as a housekeeping gene.
as §1
Human ovarian carcinoma cells (OVCAR 8) were treated with lipid 1 containing LNPs with either siPLK1 or siLUC for 72 hr and PLK-1 expression was measured by qPCR.

[5] = test system: Drug resistant human ovarian carcinoma cells (NAR); experiment: PLK-1 expression by qPCR after LNP-siPLK-1 or LNP-siLuc; type: cell-based; details: 72 hrs
Method: as §2, §1
Drug resistant human ovarian carcinoma cells (NAR) were treated with either LNP-siPLK-1 or LNP-siLuc nanoparticles Lipid 1 LNPs (A); Lipid 10&11 LNPs (B) for 72 hrs and PLK-1 expression was measured by qPCR as described in Example 1.

[6] = test system: Spheroids of drug resistant human ovarian carcinoma cells (NAR); experiment: PLK-1 expression by qPCR in 3D spheroids; type: cell-based; details: 72 hr
Method: as §2
Spheroids of drug resistant human ovarian carcinoma cells (NAR) were treated with LNPs composed of lipid1 and with either siPLK-1 or siLuc s for 72 hr and PLK-1 expression was measured by qPCR. Spheroids are 3D cultures of tumor cells mimicking in vivo tumors.

[7] = test system: Human ovarian cancer cells (NAR cells); experiment: Apoptosis by FACS using PI/Annexin after siPLK1-LNPs; type: cell-based; details: 48 hr; for Apoptosis induced by siPLK1-LNPs: PI/Annexin FACS
Method: as §1
Human ovarian cancer cells (NAR cells) were treated with lipid1/siPLK1 nanoparticles for 48 hr at different siRNA concentrations (0.2 μM and 0.1 μM). Apoptotic cells were analyzed by FACS using PI/Annexin. […] Percentage of early apoptotic cells was higher in cells treated with siPLK1-LNPs at 0.2 uM dose of siPLK1.
Human ovarian cancer cells (NAR cells) were treated with either lipid10 or lipid 11/siPLK1 nanoparticles for 48 hr at different siRNA concentrations (0.1 μM and 0.05 μM). siLUC-LNPs used as a negative control. Apoptotic cells were analyzed by FACS using PI/Annexin.

[8] = test system: Human multiple myeloma suspension cells (U266); experiment: PLK1 expression by qPCR after siPLK1-LNPs; type: cell-based; details: U266, 48 hrs, normalized to LNPs-ctl siRNA treated cells
Method: as §2
Human multiple myeloma suspension cells (U266) were incubated with LNPs containing siPLK1 at different concentrations for 48 hrs. PLK1 expression was measured by qPCR. PLK1-mRNA levels were normalized to LNPs-ctl siRNA treated cells.

[9] = test system: Human colon carcinoma cells (HCT116); experiment: Toxicity of LNPs with ctl siRNA, XTT cell viability; type: cell-based; details: 72 hrs
Method: Human colon carcinoma cells (HCT116) were incubated with LNPs with ctl siRNA (see methods) for 72 hrs. The cell viability was measured by XTT assay. Toxicity of LNPs composed of either lipid 38 or lipid 55 is compared with gold standard LNPs composed of Dlin-MC3-DMA.

[10] = test system: Human multiple myeloma suspension cells (U266); experiment: Cell viability after PLK1 silencing, XTT assay; type: cell-based; details: U266, 48 hrs
Method: Human multiple myeloma suspension cells (U266) were incubated with siPLK1-LNPs or siCtl-LNPs composed of either lipid 38 or 55 at different concentrations for 48 hrs. Cell viability affected by PLK1 down regulation was measured by XTT assay.

[11] = test system: Human multiple myeloma suspension cells (MM1); experiment: Cell viability after PLK1 silencing, XTT assay; type: cell-based; details: MM1, 48 hrs
Method: Human multiple myeloma suspension cells (MM1) were incubated with siPLK1-LNPs or siCtl-LNPs composed of either lipid 38 or 55 at different concentrations for 48 hrs. Cell viability affected by PLK1 down regulation was measured by XTT assay.

[12] = test system: Human B-cell lymphoma suspension cells (RPMI-8226); experiment: Cell viability after PLK1 silencing, XTT assay; type: cell-based; details: RPMI-8226, 48 hrs
Method: Human B-cell lymphoma suspension cells (RPMI-8226) were incubated with siPLK1-LNPs or siCtl-LNPs composed of either lipid 38 or 55 at different concentrations for 48 hrs. Cell viability affected by PLK1 down regulation was measured by XTT assay.

Zeta-potential (mV) [2]	PDI [2]	Size (d · nm) [2]	Structure (SMILES)	further results
−1 mV	0.18	44.5 nm	CCCCC/C=C\C/C=C\CCCCCCCCC(CCCCCCCC/C=C\C/C=C\CCCCC)OC(=O)CCCN(C)C [Dlin-MC3-DMA, reference compound]	mKATE expression [1]: did not show any effect on mKATE expression
18.5 mV	0.14	45.1 nm	CCCCC/C=C\C/C=C\CCCCCCCCNN(CCCCCCCC/C=C\C/C=C\CCCCC)CCN(C)C [Lipid 1, 2-(1,2-di((9Z,12Z)-octadeca-9,12-dien-1-yl)hydrazinyl)-N,N-dimethylethan-1-amine]	CD45 gene down-regulation [3]: down-regulate CD45 gene in hard to transfect T cells; mKATE expression [1]: mKATE expression was observed; Dose dependence of mKATE expression [1]: did not show any dose dependent expression; PLK-1 expression, siPLK1-LNPs [4]: efficiently downregulating PLK1 gene compared to dlin-mc3-dma containing LNPs; PLK-1 expression, LNP-siLuc control siRNA [5]: did not affect plk1 expression; PLK-1 expression, LNP-siPLK-1 [5]: downregulating the proto-oncogene PLK1 efficiently; PLK-1 expression, siPLK1-LNPs [6]: significantly downregulating PLK1 gene compared to siLUC-LNPs; Percentage of early apoptotic cells ([7]; 0.2 uM dose of siPLK1): higher; Apoptosis induced by siPLK1-LNPs [7]: inducing apoptosis in cancer cell; Effect on cell cycle of siLUC-LNPs ([7]; control siRNA): no effect on cell cycle
13.9 mV	0.06	56.3 nm	CCCCC/C=C\C/C=C\CCCCCCCCNN(CCCCCCCC/C=C\C/C=C\CCCCC)CCCCN(C)C [Lipid 2]	
−13.6 mV	0.04	75.1 nm	CCCCC/C=C\C/C=C\CCCCCCCCN(CCCCCCCC/C=C\C/C=C\CCCCC)OC(=O)CN(C)C [Lipid 9]	
18.5 mV	0.08	50.5 nm	CCCCC/C=C\C/C=C\CCCCCCCCN(CCCCCCCC/C=C\C/C=C\CCCCC)NC(=O)CCCN(C)C [Lipid 10]	mKATE expression [1]: mKATE expression was observed; Dose dependence of mKATE expression [1]: dose dependent expression of mKATE; PLK-1 expression, LNP-siLuc control siRNA [5]: no effect on plk1 expression; PLK-1 expression, LNP-siPLK-1 [5]: down regulating plk1 gene efficiently at different doses; Apoptosis induced by siPLK1-LNPs [7]: efficiently downregulating PLK1 gene followed by inducing apoptosis in NAR cells
20.4 mV	0.10	108.5 nm	CCCCC/C=C\C/C=C\CCCCCCCCN(CCCCCCCC/C=C\C/C=C\CCCCC)NC(=O)[C@@H](N)CCCCN(C)C [Lipid 11, 2-amino-6-(dimethylamino)-N′,N′-di((9Z,12Z)-octadeca-9,12-dien-1-yl)hexanehydrazide]	PLK-1 expression, LNP-siLuc control siRNA [5]: no effect on plk1 expression; PLK-1 expression, LNP-siPLK-1 [5]: down regulating plk1 gene efficiently at different doses; Apoptosis induced by siPLK1-LNPs [7]: efficiently downregulating PLK1 gene followed by inducing apoptosis in NAR cells
−3.6 mV	0.09	44.3 nm	CCCCC/C=C\C/C=C\CCCCCCCCN(CCCCCCCC/C=C\C/C=C\CCCCC)OC(=O)CCCN(C)C [Lipid 14]	
10.1 mV	0.11	52.5 nm	CCCCC/C=C\C/C=C\CCCCCCCCN(CCCCCCCC/C=C\C/C=C\CCCCC)NCCN(C)C [Lipid 15]	
−2.8 mV	0.16	67.7 nm	CCCCC/C=C\C/C=C\CCCCCCCCN(CCCCCCCC/C=C\C/C=C\CCCCC)NC(=O)CCCN1CCN(C)CC1 [Lipid 21]	
−10.8 mV	0.15	46.0 nm	CCCCC/C=C\C/C=C\CCCCCCCCN(CCCCCCCC/C=C\C/C=C\CCCCC)OC(=O)Cc1c[nH]cn1 [Lipid 33]	
−1.28 mV	0.17	97.0 nm	CCCCC/C=C\C/C=C\CCCCCCCCN(CCCCCCCC/C=C\C/C=C\CCCCC)CCOC(=O)CCCN1CCN(C)CC1 [Lipid 55]	PLK1 expression, siPLK1-LNPs [8]: efficiently down regulate; Toxicity of LNPs (cell viability) [9]: less toxic than LNPs composed of Dlin-MC3-DMA; Cell viability, siCtl-LNPs [10]: no effect on the cell viability; Cell viability, siPLK1-LNPs [10]: more effect on cell viability compared to Dlin-MC3-DMA LNPs; Cell viability, siCtl-LNPs [11]: no effect on the cell viability; Cell viability, siPLK1-LNPs [11]: dose dependent effect on multiple myeloma cancer cell viability; Cell viability, siCtl-LNPs [12]: no effect on the cell viability; Cell viability, siPLK1-LNPs [12]: dose dependent effect on B-cell lymphoma cancer cell viability
